Results reported in patent US7491534B2, “Methods for altering cell fate to generate T-cells specific for an antigen of interest” (priority 2000, dated 2009).
Numbered stars: 1 amine (or outer) side, 2 acyl side, 3 side chain; on linkers, the order of the positions; unused ones are H or OH. Bridge positions count the residues as written; N and C are the ends. Square brackets hold non-standard residues; d marks the D form. Peptide text beside a SMILES is read from it. I, II: the chains in the order shown. Actinocin(9to1) = Cc1c2oc3c(C)ccc(C(=O)[*:1])c3nc-2c(C(=O)[*:2])c(N)c1=O; NMeV = CN[C@H](C(=O)O)C(C)C; Sar = CNCC(=O)O

Columns and labels:
IL-2 gene [1] = assay: RT-PCR of IL-2 mRNA in resting T-cell nuclei incubated in extract; format: biochemical, human; settings: mAb414 antibody or 0.5 mg/ml wheat germ agglutinin
Description: As controls, nuclei were incubated in stimulated extract containing either 100 μg/ml RNAse A, 100 μg/ml DNAse I, mAb414 antibodies, or the lectin WGA. After 30 minutes at 30° C., nuclei were lysed in the extracts by sonication and 3 μl extract aliquots were removed for RT-PCR analysis using IL-2-specific primers. In particular, total RNA was isolated using the Qiagen RNeasy kit, and 15 ng RNA was used as the template for RT-PCR using the Promega Access RT-PCR System. A 467-bp IL-2 cDNA was amplified using the IL-2-specific primers 5′-[…]-3′ (SEQ ID NO: 3) and 5′-[…]-3′ (SEQ ID NO:4). PCR conditions were 30 cycles of denaturation at 94° C. for one minute, annealing at 60° C. for two minutes, and extension at 72° C. for three minutes. Input stimulated extract and a control stimulated extract containing 1.2 μg total RNA isolated from IL-2-producing T-cells were also analyzed (FIGS. 5A and 10A). […] The PCR product of the expected size (467 base pairs) was absent from input nuclei and input stimulated extract (as expected from FIG. 7), nuclei exposed to unstimulated extract (Nuclei-USE), and nuclei exposed to stimulated extract followed by treatment with 100 μg/ml RNAse A, but not 100 μg/ml DNAse I, prior to RT-PCR. Thus, detection of IL-2 mRNA was the result of IL-2 transcription and not of RNA contamination in input nuclei or in the extract. […]

293T fibroblasts = assay: Permeabilization of 293T fibroblasts judged by propidium iodide uptake; format: cell-based, human; settings: 200 ng/ml, 50 minutes at 37° C.
Description: For these studies, 293T fibroblasts were grown on 16-mm poly-L-lysine-coated coverslips in RPMI1640 to 100,000 cells/coverslip in 12-well plates. Cells were permeabilized in 200 ng/ml streptolysin O in Ca^2+-free Hanks Balanced Salt Solution (Gibco-BRL) for 50 minutes at 37° C. in regular atmosphere. Over 80% of 293T cells were permeabilized under these conditions, as judged by propidium iodide uptake. Streptolysin O was aspirated; coverslips overlaid with 80 μl of either 293T, Jurkat-Tag, or NT2 extract; and incubated for one hour at 37° C. in CO2 atmosphere. Each extract contained the ATP generating system and 1 mM each of ATP, CTP, GTP and UTP. Extracts from Jurkat-TAg cells were prepared as described above after co-stimulation for 1-2 hours with 40 ng/ml anti-CD3 antibodies (clone SpvT3d obtained from A. M. Rasmussen, Norwegian Radium Hospital, Montebello, Norway) and 0.1 μM PMA. The neuronal precursor NT2 extract was prepared from confluent NT2 cells (Stratagene) by sonication and sedimentation as described above. To reseal plasma membranes, RPMI1640 containing 2 mM CaCl2 (added from a 1 M stock in H2O) was added to the wells, and the cells were incubated for two hours at 37° C. This procedure resealed ˜100% of the permeabilized cells. Ca^2+-containing RPMI was replaced by RPMI, and the cells were expanded for several weeks.

[2] = tested on: NFAT, c-Jun/AP 1, NFκB, and MAP kinase (Erk1 and Erk2); assay: Nuclear uptake of transcription factors by resting T-cell nuclei in cell-free extract (immunoblot); format: biochemical, human; settings: in stimulated extract; ATP or GTP substituted, or nuclear pores blocked
Description: A stimulated T-cell extract was prepared by lysing these T-cells, centrifuging them at 15,000×g, isolating the supernatant, and adding an ATP-generating system to the supernatant. In particular, cells were disrupted with a tip sonicator until over 90% of the cells and nuclei were lysed. The lysate was cleared at 15,000×g for 15 minutes at 4° C. The supernatant was used fresh or aliquoted, frozen in liquid nitrogen, and stored at −80° C. […] Extract from unstimulated T-cells (USE) were prepared from mock (H2O)-stimulated T-cells. A reprogramming reaction consisted of 20 μl or multiples thereof of stimulated extract or unstimulated extract containing 10^5 nuclei and an ATP generating system (1 mM ATP, 10 mM creatine phosphate, 25 μg/ml creatine kinase, and 100 μM GTP).
To generate donor nuclei, resting peripheral blood T-cells were washed and resuspended in 20 volumes of ice-cold hypotonic nuclear buffer (10 mM Hepes, pH 7.5, 2 mM MgCl2, 25 mM KCl, 1 mM DTT, and protease inhibitors). Nuclei were isolated by careful Dounce-homogenization, sedimented at 400×g and washed in nuclear buffer (hypotonic nuclear buffer/250 mM sucrose). HUVEC, HeLa, and NT2 nuclei were isolated similarly. Nuclear integrity prior to, and after, incubation in the extract was monitored by phase contrast microscopy and by nuclear membrane labeling with 10 μg/ml of the lipophilic dye, DiOC6 (FIG. 8A). […]
The ability of other transcription factors from the extract to migrate into the nuclei of T-cells, B-cells, fibroblasts, and HeLa cells was also determined. […] As expected for a whole cell extract, NFAT, AP-1, or NFκB, Oct-1 and Erk (1 and 2) were detected on Western blots of input stimulated extract prior to incubation of the nuclei (FIG. 8B). […] The ubiquitous transcription factor Oct-1 was detected in similar amounts in input nuclei and nuclei exposed to stimulated extract or unstimulated extract (FIG. 8B, Oct-1).

IL-2 gene [3] = assay: RT-PCR of IL-2 mRNA in HUVEC, NT2 and HeLa nuclei incubated in extract; format: biochemical, human; settings: 50 nM actinomycin D; mAb414
Description: As a more stringent indicator of nuclear reprogramming, activation of the IL-2 gene was monitored in nuclei purified from primary human umbilical vein endothelial cells (HUVEC), NT2 neuronal precursors, and HeLa cells after a two hour incubation in the stimulated extract. […] IL-2 activation was dependent on RNA Pol II activity and nuclear import, based on its elimination by 50 nM actinomycin D and mAb414, respectively (FIG. 10C).

IL-2 gene [4] = assay: RT-PCR of IL-2 transcription in 293T fibroblast nuclei; format: biochemical, human; settings: 293T nuclei; mAb414 or 50 nM actinomycin D
Description: Another and more stringent indicator of nuclear reprogramming was induction of IL-2 transcription in 293T fibroblast nuclei exposed to stimulated T-cell extract (FIG. 12D). Total RNA was isolated using the Qiagen RNeasy kit, and 15 ng RNA was used as the template for RT-PCR using the Promega Access RT-PCR System. A 467-bp product was amplified using the IL-2-specific primers 5′-[…]-3′ (SEQ ID NO: 5) and 5′-[…]-3′ (SEQ ID NO: 6) by 30 cycles of denaturation at 94° C. for 30 seconds, annealing at 60° C. for one minute, and extension at 72° C. for one minute. […] As expected from the above results, the IL-2 transcript was absent from input nuclei, input stimulated T-cell extract, and nuclei exposed to stimulated T-cell extract containing either 100 pg/ml RNAse A, mAb414, or 50 nM of the RNA polymerase II (Pol II) inhibitor, actinomycin D (FIG. 12D). Similar results were obtained with neuronal precursor NT2 nuclei and resting T-cell nuclei (FIG. 12D).

For wheat germ agglutinin, the “IL-2 transcription in stimulated extract with nuclear pore function blocked” value (IL-2 gene [1]) was “abolished”.
For “streptolysin O: bacterial toxin used to reversibly permeabilize cells”, the 293T cells permeabilized (293T fibroblasts) was “Over 80%”.
`Nc1ncnc2c1ncn2[C@@H]1O[C@H](COP(=O)(O)OP(=O)(O)NP(=O)(O)O)[C@@H](O)[C@H]1O` [AMP-PNP] was tested, and the “nuclear uptake (import) of transcription factors in resting T-cell nuclei” value (shortened to “nuclear uptake (import)”) [2] was “inhibited”.
In the case of `Nc1nc2c(ncn2[C@@H]2O[C@H](COP(=O)(O)OP(=O)(O)OP(O)(O)=S)[C@@H](O)[C@H]2O)c(=O)[nH]1` [GTPγS], the “nuclear uptake (import)” value [2] is reported as “inhibited”.
In the case of `Nc1ncnc2c1ncn2[C@@H]1O[C@H](COP(=O)(O)OP(=O)(O)OP(O)(O)=S)[C@@H](O)[C@H]1O` [ATPγS], the “nuclear uptake (import)” value [2] is reported as “inhibited”.
`Cc1c2oc3c(C)ccc(C(=O)N[C@@H]4C(=O)N[C@H](C(C)C)C(=O)N5CCC[C@H]5C(=O)N(C)CC(=O)N(C)[C@@H](C(C)C)C(=O)O[C@@H]4C)c3nc-2c(C(=O)N[C@@H]2C(=O)N[C@H](C(C)C)C(=O)N3CCC[C@H]3C(=O)N(C)CC(=O)N(C)[C@@H](C(C)C)C(=O)O[C@@H]2C)c(N)c1=O` [actinomycin D] (I: T[dV]P[Sar][NMeV] / II: T[dV]P[Sar][NMeV]; ester I:1-I:C, II:1-II:C; linker I:N-II:N via Actinocin(9to1)) was tested, and the “IL-2 activation in stimulated extract with inhibitor” value (IL-2 gene [3]) was “elimination” and the “IL-2 transcript in stimulated T-cell extract with inhibitor” value (IL-2 gene [4]) was “absent”.
